Measurements reported in publication PMC4256678 (Nature neuroscience, 2014).
Values belong to the compound of their own block, whether it stands above or below them.

Tests used:
HDAC8 = biological target: T1, HDAC8 (Homo sapiens, UniProt Q9BY41); test: fluorometric HDAC activity assay, […]; format: biochemical
T1 sequence (Q9BY41 1-377): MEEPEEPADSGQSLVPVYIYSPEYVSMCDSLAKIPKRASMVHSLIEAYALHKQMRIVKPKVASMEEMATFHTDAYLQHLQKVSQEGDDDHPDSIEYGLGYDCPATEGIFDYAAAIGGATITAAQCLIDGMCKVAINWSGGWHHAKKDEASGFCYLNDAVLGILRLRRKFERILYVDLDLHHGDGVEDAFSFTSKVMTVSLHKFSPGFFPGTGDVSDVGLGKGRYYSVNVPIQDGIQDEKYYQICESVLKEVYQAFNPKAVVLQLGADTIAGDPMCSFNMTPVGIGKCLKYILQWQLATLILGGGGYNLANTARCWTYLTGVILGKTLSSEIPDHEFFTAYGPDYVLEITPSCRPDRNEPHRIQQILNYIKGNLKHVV

HDAC1 = HDAC1 (Homo sapiens, UniProt Q13547); test: […]FTY720-P radioligand binding and displacement on Ni-NTA immobilized HDAC1
Sequence of HDAC1 (Q13547 whole entry): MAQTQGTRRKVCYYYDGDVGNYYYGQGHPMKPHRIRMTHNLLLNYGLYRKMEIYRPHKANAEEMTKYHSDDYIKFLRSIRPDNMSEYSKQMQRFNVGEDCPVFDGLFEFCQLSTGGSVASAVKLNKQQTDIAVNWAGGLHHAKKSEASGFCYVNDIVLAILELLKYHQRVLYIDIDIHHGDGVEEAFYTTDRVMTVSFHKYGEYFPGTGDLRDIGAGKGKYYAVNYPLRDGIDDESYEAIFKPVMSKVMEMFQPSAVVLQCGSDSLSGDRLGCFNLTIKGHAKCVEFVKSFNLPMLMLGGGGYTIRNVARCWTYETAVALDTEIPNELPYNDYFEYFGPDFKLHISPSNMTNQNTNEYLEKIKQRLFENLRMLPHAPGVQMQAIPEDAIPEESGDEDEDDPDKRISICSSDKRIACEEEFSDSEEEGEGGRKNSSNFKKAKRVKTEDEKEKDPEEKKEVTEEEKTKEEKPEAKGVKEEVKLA

HDAC2 [1] = biological target: T2, HDAC2 (Homo sapiens, UniProt Q92769); test: fluorometric HDAC activity assay, […]; format: biochemical
T2 sequence (Q92769 whole entry): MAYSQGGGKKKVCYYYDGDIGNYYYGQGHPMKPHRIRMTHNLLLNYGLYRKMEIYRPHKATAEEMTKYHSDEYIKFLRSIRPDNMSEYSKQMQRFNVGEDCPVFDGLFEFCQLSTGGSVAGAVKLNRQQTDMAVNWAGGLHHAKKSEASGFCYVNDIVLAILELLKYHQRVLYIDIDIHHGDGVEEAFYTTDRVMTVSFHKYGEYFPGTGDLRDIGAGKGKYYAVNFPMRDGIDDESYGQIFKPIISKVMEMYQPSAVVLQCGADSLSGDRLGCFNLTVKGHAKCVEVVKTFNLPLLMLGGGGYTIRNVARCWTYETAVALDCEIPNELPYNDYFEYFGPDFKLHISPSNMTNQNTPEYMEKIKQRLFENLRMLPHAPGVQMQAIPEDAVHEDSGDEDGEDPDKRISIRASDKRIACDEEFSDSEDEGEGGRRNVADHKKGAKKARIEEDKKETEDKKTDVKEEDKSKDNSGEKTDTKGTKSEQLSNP

HDAC3 [2] = biological target: T3, HDAC3 (Homo sapiens, UniProt O15379); test: fluorometric HDAC activity assay, […]; format: biochemical
T3 sequence (O15379 whole entry): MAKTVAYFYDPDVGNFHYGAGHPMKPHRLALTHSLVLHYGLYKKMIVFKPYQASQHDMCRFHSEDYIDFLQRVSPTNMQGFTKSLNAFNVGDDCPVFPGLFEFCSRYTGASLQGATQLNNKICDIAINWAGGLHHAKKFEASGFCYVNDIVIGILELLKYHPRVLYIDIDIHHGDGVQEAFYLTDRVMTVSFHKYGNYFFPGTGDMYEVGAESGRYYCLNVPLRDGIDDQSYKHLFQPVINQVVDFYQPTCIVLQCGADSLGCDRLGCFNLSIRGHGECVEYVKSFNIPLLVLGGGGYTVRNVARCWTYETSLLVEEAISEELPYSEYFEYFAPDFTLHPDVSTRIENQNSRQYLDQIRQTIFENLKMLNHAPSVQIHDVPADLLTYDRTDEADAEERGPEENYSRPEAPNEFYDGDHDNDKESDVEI

HDAC3 [3] = biological target: T3, HDAC3; test: fluorometric HDAC activity assay, […]; format: biochemical; remark: listed apart in the source
HDAC2 [4] = biological target: T2, HDAC2; test: fluorometric HDAC activity assay, […]; format: biochemical; remark: listed apart in the source

Kd (HDAC1): 6.2 nM
SMILES: CCCCCCCCc1ccc(CC[C@](N)(CO)COP(=O)(O)O)cc1 [FTY720-P]
fluorometric HDAC activity assay, 0.5 or 5 uM (HDAC8): FTY720-P inhibited the activities of highly purified recombinant class I HDACs (HDAC1, HDAC2, HDAC3 and HDAC8)
fluorometric HDAC activity assay, 0.5 or 5 uM (HDAC2 [1]): FTY720-P inhibited the activities of highly purified recombinant class I HDACs (HDAC1, HDAC2, HDAC3 and HDAC8)
fluorometric HDAC activity assay, 0.5 or 5 uM (HDAC3 [2]): FTY720-P inhibited the activities of highly purified recombinant class I HDACs (HDAC1, HDAC2, HDAC3 and HDAC8)

SMILES: CCCCCCCCCCCCC/C=C/[C@@H](O)[C@@H](N)COP(=O)(O)O [S1P]
fluorometric HDAC activity assay, 5 uM (HDAC3 [3]): Even though S1P inhibited HDAC1–HDAC3, it did not inhibit HDAC8 activity
fluorometric HDAC activity assay, 5 uM (HDAC2 [4]): Even though S1P inhibited HDAC1–HDAC3, it did not inhibit HDAC8 activity
